Where a name gives a salt, the structure may show the parent alone.

In one assay the test system is Bmi-1 protein. Kind of assay: Sandwich ELISA Assay (Bmi-1 protein level in HT-1080 cells after compound treatment). The class given is cell-based. Conditions: Table 1, Bmi-1 sandwich ELISA, read-out: ELISA EC50 value for Bmi-1 protein. How it is done:
Cell Seeding and Compound Treatment (Day 1):
HT-1080 cells were seeded at 8000 cells/well (50 μL) in 96-well tissue culture plates. After the cells became adherent (3-4 hours), 2× diluted stocks of test compounds in 50 μL DMEM containing 1% DMSO (final DMSO concentration was 0.5%) were added and the plates were incubated at 37° C. under 5% CO2 for 40-48 hours.
ELISA Plate First Antibody Preparation (Day 2):
The First Antibody (Millipore Mouse, monoclonal to mouse Bmi-1, clone F6, catalog #05-637) diluted to […] in PBS was added (100 μL) to each well of a Nunc MaxiSorp 96-well ELISA plate. The plate was covered with a plate seal and allowed to stand overnight.
Cell Lysate Preparation (Day 3):
Fresh Lysis buffer (1×) was prepared on the day of the assay as follows: 1 mM EDTA, 150 mM NaCl, 0.5% Triton-X 100, 10 mM NaF, 20 mM B-Glycerophosphate, 1 mM DTT (in PBS, pH 7.2-7.4) and HALT protease inhibitor cocktail (lx) (Pierce #78410).
A standard curve was prepared at the following Bmi-1 concentrations: 8000, 4000, 2000, 1000, 500, 250, 125 and 0 pg/mL. The Bmi-1 Recombinant Protein Standard (Novus Biologicals PCGF4 Recombinant Protein (P01), catalog # H00000648-P01) used to prepare the standard curve was stored at −80° C. On first thaw, the Recombinant Protein Standard was diluted to 10 μg/L in Blocking Buffer (1% BSA in PBS; BSA: Fisher Scientific Catalog #1600-100). Aliquots were taken and refrozen at −80° C. The aliquots may be kept at 4° C. and reused after first thaw, but only within 1-2 weeks. The Recombinant Protein Standard contains a GST-fusion tag that appears at approximately 70 Kda on Western Blot.
The prepared ELISA plate was washed 3× with Wash Buffer (0.05% Tween-20 in PBS). The final wash was removed from the plate and the plate was blotted dry. Blocking Buffer (300 μL) (1% BSA in PBS) was added to each well. The plate was covered with a plate seal and incubated at room temperature for 1 hour. The blocked plate was washed 3× with Wash Buffer, then the final wash was removed and the plate was blotted dry. The previously prepared samples and standards were added ([…]) and the plate was covered with a plate seal and incubated at 4° C. overnight.
The prepared ELISA plate was removed from incubation and allowed to stand at room temperature for 30 minutes, then washed and blotted dry. The Second Antibody (Cell Signaling Rabbit anti-Bmi-1, Cat #2830) diluted to 1:600 in Blocking Buffer was added (100 μL) to each well, except as needed for background control wells. The plate was covered with a plate seal and incubated for 1.5 hrs at room temperature.
The ELISA plate was washed and blotted dry as previously described. The Third Antibody (Cell Signaling HRP conjugated anti-rabbit IgG (CellSignaling, Cat #:7074) diluted to 1:300 in Blocking Buffer was added (100 μL) to each well, except as needed for background control wells. The plate was incubated for 1 hr at room temperature.
The plate was washed and blotted dry, then a previously prepared TMB substrate (TMB substrate kit, Pierce catalog #34021) (prepared by mixing kit reagents 1:1) (100 μL) was added per well. The plate was incubated for 20-30 minutes at room temperature in the dark, then Stop Solution (2 M sulfuric acid in water) (50 μL) was added per well. The plates were read at OD450 (experimental) and OD570 (reference).
As for `CCO/C=C\c1cn(-c2cncc(Nc3ccc(C(F)(F)F)cc3)n2)c(C)n1` [Cpd 391, 6-{4-[(Z)-2-ethoxyethenyl]-2-methyl-1H-imidazol-1-yl}-N-[4-(trifluoromethyl)phenyl]pyrazin-2-amine], the EC50 is 100 to 3000 nM. On to `FC(F)(F)Oc1ccc(Nc2cncc(-c3c(C(F)(F)F)nc4n3CCCC4)n2)cc1` [Cpd 234, N-[4-(trifluoromethoxy)phenyl]-6-[2-(trifluoromethyl)-5,6,7,8-tetrahydroimidazo[1,2-a]pyridin-3-yl]pyrazin-2-amine], for which the EC50 was 10 to 100 nM. The same measure, in the same setting: the same measure for `Cc1nc2cc(F)c(F)cc2n1-c1cc(N)cc(Nc2ccc(OC(F)(F)F)cc2)n1` [compound 652, 6-(5,6-difluoro-2-methyl-1H-benzimidazol-1-yl)-N^2-[4-(trifluoromethoxy)phenyl]pyridine-2,4-diamine]: 10 to 100 nM. `FC(F)(F)c1nc2ccccn2c1-c1cncc(Nc2ccc(Cl)c(Cl)c2)n1` [Cpd 29, N-(3,4-dichlorophenyl)-6-[2-(trifluoromethyl)imidazo[1,2-a]pyridin-3-yl]pyrazin-2-amine]: the EC50 was 10 to 100 nM. Still for that read-out and setting: the same measure for `Cc1nn2ccccc2c1-c1cc(C#N)cc(Nc2ccc(OC(F)(F)F)cc2)n1` [compound 514, 2-(2-methylpyrazolo[1,5-a]pyridin-3-yl)-6-{[4-(trifluoromethoxy)phenyl]amino}pyridine-4-carbonitrile]: 100 to 3000 nM; for `Cc1cc2nc(C)n(-c3cncc(Nc4ccc(C(F)(F)F)cc4)n3)c2cc1C` [compound 386, N-[4-(trifluoromethyl)phenyl]-6-(2,5,6-trimethyl-1H-benzimidazol-1-yl)pyrazin-2-amine]: 100 to 3000 nM; for `Cc1nc2ccccc2n1-c1cc(N)cc(Nc2ccc(F)cc2)n1` [compound 605, N^2-(4-fluorophenyl)-6-(2-methyl-1H-benzimidazol-1-yl)pyridine-2,4-diamine]: 100 to 3000 nM. Still for that read-out and setting: with `FC(F)(F)c1ccc(Nc2cncc(-c3c(C4CC4)nc4ncccn34)n2)cc1` [compound 422, 6-(2-cyclopropylimidazo[1,2-a]pyrimidin-3-yl)-N-[4-(trifluoromethyl)phenyl]pyrazin-2-amine] the figure was 10 to 100 nM; with `COc1ccc(Nc2cncc(-c3c(C(F)(F)F)nn4ccccc34)n2)cc1` [compound 74, N-(4-methoxyphenyl)-6-[2-(trifluoromethyl)pyrazolo[1,5-a]pyridin-3-yl]pyrazin-2-amine], less than 1 nM. Regarding `CCc1nc2ncc(Cl)cc2n1-c1cncc(Nc2ccc(C(F)(F)F)cc2)n1` [compound 327, 6-(6-chloro-2-ethyl-1H-imidazo[4,5-b]pyridin-1-yl)-N-[4-(trifluoromethyl)phenyl]pyrazin-2-amine], the concentration giving a half-maximal response (EC50) is 1 to 10 nM. Still for that read-out and setting: the same measure for `COc1ccc(Nc2cccc(-c3c(C(F)(F)F)nc4ccccn34)n2)cc1F` [Cpd 8, N-(3-fluoro-4-methoxyphenyl)-6-[2-(trifluoromethyl)imidazo[1,2-a]pyridin-3-yl]pyridin-2-amine]: 1 to 10 nM; for `Cc1nc2cc(F)c(F)cc2n1-c1cncc(Nc2ccc(Cl)nc2)n1` [compound 405, N-(6-chloropyridin-3-yl)-6-(5,6-difluoro-2-methyl-1H-benzimidazol-1-yl)pyrazin-2-amine]: 100 to 3000 nM; for `Cc1ccc(Nc2cc(C#N)cc(-n3c(C)nc4cc(F)c(F)cc43)n2)cc1` [compound 599, 2-(5,6-difluoro-2-methyl-1H-benzimidazol-1-yl)-6-[(4-methylphenyl)amino]pyridine-4-carbonitrile]: 10 to 100 nM. As to `CNc1ccc2nc(C)n(-c3cncc(Nc4ccc(OC(F)(F)F)cc4)n3)c2c1` [compound 225, N,2-dimethyl-1-(6-{[4-(trifluoromethoxy)phenyl]amino}pyrazin-2-yl)-1H-benzimidazol-6-amine], the EC50 is 100 to 3000 nM. Consider `COc1ccc2nc(C(F)(F)F)c(-c3cncc(Nc4ccc(C)cc4)n3)n2c1` [Cpd 682, 6-[6-methoxy-2-(trifluoromethyl)imidazo[1,2-a]pyridin-3-yl]-N-(4-methylphenyl)pyrazin-2-amine], for which the EC50 was 100 to 3000 nM.

With `CCc1nn2ccccc2c1-c1cncc(Nc2ccc(OC(F)F)c(F)c2)n1` [compound 522, N-[4-(difluoromethoxy)-3-fluorophenyl]-6-(2-ethylpyrazolo[1,5-a]pyridin-3-yl)pyrazin-2-amine], the EC50 lay in the range of 10 to 100 nM.

For the compound `CC(=O)O[C@@H](C)c1nc2ccccc2n1-c1cncc(Nc2ccc(C(F)(F)F)cc2)n1` [compound 78, (1S)-1-[1-(6-{[4-(trifluoromethyl)phenyl]amino}pyrazin-2-yl)-1H-benzimidazol-2-yl]ethyl acetate], the half-maximal effective concentration (EC50) is 100 to 3000 nM. For `COc1ccc2nc(C(F)(F)F)c(-c3cccc(Nc4ccc(OC=O)cc4)n3)n2c1` [compound 112, 4-({6-[6-methoxy-2-(trifluoromethyl)imidazo[1,2-a]pyridin-3-yl]pyridin-2-yl}amino)phenyl formate], the EC50 is 100 to 3000 nM.

As for `Cc1nc2ccccc2n1-c1cncc(Nc2ccc(B(O)O)cc2)n1` [compound 434, (4-{[6-(2-methyl-1H-benzimidazol-1-yl)pyrazin-2-yl]amino}phenyl)boronic acid], the EC50 was 10 to 100 nM. In the case of `COc1ccc(Nc2cncc(-n3c(C)cc4ccccc43)n2)cc1` [compound 164, N-(4-methoxyphenyl)-6-(2-methyl-1H-indol-1-yl)pyrazin-2-amine], the EC50 was in the range of 10 to 100 nM.

As to `FC(F)(F)c1ccc(Nc2cccc(-c3c(C(F)(F)F)nc4cnccn34)n2)cc1` [compound 194, 6-[2-(trifluoromethyl)imidazo[1,2-a]pyrazin-3-yl]-N-[4-(trifluoromethyl)phenyl]pyridin-2-amine], the EC50 fell in the range of 10 to 100 nM. On to `Cc1nn2ccccc2c1-c1cncc(Nc2ccc(OC(F)(F)F)cc2)n1` [compound 500, 6-(2-methylpyrazolo[1,5-a]pyridin-3-yl)-N-[4-(trifluoromethoxy)phenyl]pyrazin-2-amine], for which the concentration for a half-maximal effect (EC50) is 10 to 100 nM. As to `COc1ccc(Nc2cncc(-c3c(C)nn4ccccc34)n2)cc1` [compound 565, N-(4-methoxyphenyl)-6-(2-methylpyrazolo[1,5-a]pyridin-3-yl)pyrazin-2-amine], the EC50 is less than 1 nM. In the case of `Nc1nc2ccccc2n1-c1cncc(Nc2ccc(C(F)(F)F)cc2)n1` [compound 76, 1-(6-{[4-(trifluoromethyl)phenyl]amino}pyrazin-2-yl)-1H-benzimidazol-2-amine], the EC50 lay within 100 to 3000 nM. Still for that read-out and setting: with `Cc1ccc(Nc2cc(C#N)cc(-n3c(C)nc4ccccc43)n2)cc1` [Cpd 634, 2-(2-methyl-1H-benzimidazol-1-yl)-6-[(4-methylphenyl)amino]pyridine-4-carbonitrile] the figure was 10 to 100 nM; with `Cc1ccc(Nc2cc(N)cc(-n3c(C)nc4cc(F)c(F)cc43)n2)cc1` [compound 657, 6-(5,6-difluoro-2-methyl-1H-benzimidazol-1-yl)-N^2-(4-methylphenyl)pyridine-2,4-diamine], 10 to 100 nM. For `COc1ccc2nc(C(F)(F)F)c(-c3cncc(Nc4ccc(F)cc4)n3)n2c1` [Cpd 681, N-(4-fluorophenyl)-6-[6-methoxy-2-(trifluoromethyl)imidazo[1,2-a]pyridin-3-yl]pyrazin-2-amine], the EC50 lay within 100 to 3000 nM.

The assay is the same for the next values; noted with them: read-out: ELISA EC50 value for Bmi-1 protein, Table 1, Bmi-1 sandwich ELISA.
Regarding `FC(F)(F)c1ccc(Nc2cccc(-c3c(C(F)(F)F)nc4ccccn34)n2)cc1` [Cpd 18, 6-[2-(trifluoromethyl)imidazo[1,2-a]pyridin-3-yl]-N-[4-(trifluoromethyl)phenyl]pyridin-2-amine], the EC50 is 1 to 10 nM.

As for `Cn1nc2c(c1-c1cncc(Nc3ccc(C(F)(F)F)cc3)n1)CCCC2` [compound 454, 6-(2-methyl-4,5,6,7-tetrahydro-2H-indazol-3-yl)-N-[4-(trifluoromethyl)phenyl]pyrazin-2-amine], the half-maximal effective concentration (EC50) is 1 to 10 nM.

Source of the values: patent US10584115B2, “Substituted pyridine and pyrazine BMI-1 inhibitors” (PTC Therapeutics, Inc., priority 2013, dated 2020).
